The source of these data is patent US10369138B2, “Monobactam organic compounds for the treatment of bacterial infections” (Novartis AG, priority 2014, dated 2019).

As usually defined, the MIC is the lowest concentration that inhibits growth of the organism.

In one assay the test system is E. coli strain 25922. The assay is described as follows: MIC by broth microdilution, E. coli strain 25922. The format is cell-based. Conditions: Escherichia coli, 25922, E. coli strain 25922; read-out: Ec 25922 (MIC). The method in brief: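 CLSI broth microdilution in cation-adjusted Mueller-Hinton broth, inoculum about 5×10^5 CFU/mL, 10% DMSO from the diluted series, 20 h at 35-37° C. MIC is the lowest concentration preventing visible growth, read by eye and at 600 nm.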
On the technique in general: In broth dilution the organism is exposed to a series of concentrations in liquid medium.

For another assay, the system named is E. coli containing KPC-2. The assay is described as follows: MIC by broth microdilution, E. coli containing KPC-2 (Ec KPC2 Iso). The format is cell-based. The settings on record: Escherichia coli, read-out: Ec KPC2 Iso (MIC), E. coli containing KPC-2 (carbapenemase from Klebsiella pneumoniae). The method in brief:
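Host E. coli BW25113 pspB carrying multicopy pBAD18-kan plasmid with constitutive TEM-promoter KPC-2 expression (periplasmic signal sequence); broth microdilution per CLSI in cation-adjusted Mueller-Hinton broth, inoculum ~5×10^5 CFU/mL, compounds twofold serially diluted from DMSO masters (10% DMSO in dilution series added).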

Converted amounts (≈) assume the structure as drawn.

As to `N=C(N[C@H]1C[C@H](N)C1)c1ccc(OC[C@H](O/N=C(\C(=O)N[C@@H]2C(=O)N(S(=O)(=O)O)[C@@H]2Cn2cncn2)c2csc(N)n2)C(=O)O)cc1` [Example 77, (S)-2-(((Z)-(2-(((2R,3S)-2-((1H-1,2,4-triazol-1-yl)methyl)-4-oxo-1-sulfoazetidin-3-yl)amino)-1-(2-aminothiazol-4-yl)-2-oxoethylidene)amino)oxy)-3-(4-(N-((1r,3S)-3-aminocyclobutyl)carbamimidoyl)phenoxy)propanoic acid], the MIC in the assay with E. coli strain 25922 is 0.25 µg/mL (≈ 0.361 µM); in the assay on E. coli containing KPC-2, 0.125 µg/mL (≈ 0.181 µM).

Regarding `CC(C)(O/N=C(\C(=O)N[C@@H]1C(=O)N(S(=O)(=O)O)[C@@H]1Cc1cn(CCN)nn1)c1csc(N)n1)C(=O)O` [Example 101, 2-(((Z)-(2-(((2R,3S)-2-((1-(2-aminoethyl)-1H-1,2,3-triazol-4-yl)methyl)-4-oxo-1-sulfoazetidin-3-yl)amino)-1-(2-aminothiazol-4-yl)-2-oxoethylidene)amino)oxy)-2-methylpropanoic acid], the MIC with E. coli strain 25922 and in the assay with E. coli containing KPC-2 was 1 µg/mL (≈ 1.83 µM) throughout.

For the compound `NCC1CN(Cc2cnn(C[C@@H]3[C@H](NC(=O)/C(=N\OC4(C(=O)O)CC4)c4csc(N)n4)C(=O)N3S(=O)(=O)O)n2)C1` [Example 92, 1-(((Z)-(2-(((2R,3S)-2-((4-((3-(aminomethyl)azetidin-1-yl)methyl)-2H-1,2,3-triazol-2-yl)methyl)-4-oxo-1-sulfoazetidin-3-yl)amino)-1-(2-aminothiazol-4-yl)-2-oxoethylidene)amino)oxy)cyclopropanecarboxylic acid], the MIC turned out to be 0.25 µg/mL (≈ 0.418 µM) in the assay on E. coli strain 25922 and 0.5 µg/mL (≈ 0.835 µM) in the assay on E. coli containing KPC-2.

For `CC(C)(O/N=C(\C(=O)N[C@@H]1C(=O)N(S(=O)(=O)O)[C@@H]1Cn1cc(CO)nn1)c1csc(N)n1)C(=O)O` [Example 47, 2-(((Z)-(1-(2-aminothiazol-4-yl)-2-(((2R,3S)-2-((4-(hydroxymethyl)-1H-1,2,3-triazol-1-yl)methyl)-4-oxo-1-sulfoazetidin-3-yl)amino)-2-oxoethylidene)amino)oxy)-2-methylpropanoic acid], the MIC in the assay on E. coli strain 25922 turned out to be 2 µg/mL (≈ 3.76 µM); with E. coli containing KPC-2, 5 µg/mL (≈ 9.39 µM).

For `CC(C)(O/N=C(\C(=O)N[C@@H]1C(=O)N(S(=O)(=O)O)[C@@H]1Cn1cnc(CNC(=N)N)n1)c1csc(N)n1)C(=O)O` [Example 11, 2-(((Z)-(1-(2-aminothiazol-4-yl)-2-(((2R,3S)-2-((3-(guanidinomethyl)-1H-1,2,4-triazol-1-yl)methyl)-4-oxo-1-sulfoazetidin-3-yl)amino)-2-oxoethylidene)amino)oxy)-2-methylpropanoic acid], the MIC in the assay with E. coli strain 25922 and in the assay on E. coli containing KPC-2 was 4 µg/mL (≈ 6.97 µM) in each case.

Consider `CC(C)(O/N=C(\C(=O)N[C@@H]1C(=O)N(S(=O)(=O)O)[C@@H]1Cn1nnc(CNC(=N)N)n1)c1csc(N)n1)C(=O)O` [Example 5, 2-(((Z)-(1-(2-aminothiazol-4-yl)-2-(((2R,3S)-2-((5-(guanidinomethyl)-2H-tetrazol-2-yl)methyl)-4-oxo-1-sulfoazetidin-3-yl)amino)-2-oxoethylidene)amino)oxy)-2-methylpropanoic acid], for which the MIC in the assay with E. coli strain 25922 amounted to 1 µg/mL (≈ 1.74 µM); in the assay with E. coli containing KPC-2, 4 µg/mL (≈ 6.96 µM).

For the compound `CC(C)(O/N=C(\C(=O)N[C@@H]1C(=O)N(S(=O)(=O)O)[C@@H]1CN1CCC1=O)c1csc(N)n1)C(=O)O` [Example 113, 2-(((Z)-(1-(2-aminothiazol-4-yl)-2-oxo-2-(((3S,4R)-2-oxo-4-((2-oxoazetidin-1-yl)methyl)-1-sulfoazetidin-3-yl)amino)ethylidene)amino)oxy)-2-methylpropanoic acid], the MIC with E. coli strain 25922 and in the assay with E. coli containing KPC-2 was 4 µg/mL (≈ 7.93 µM) each time.

On to `N=C(NCc1cnn(C[C@@H]2[C@H](NC(=O)/C(=N\OC3(C(=O)O)CC3)c3csc(N)n3)C(=O)N2S(=O)(=O)O)n1)N1CC[C@H](N)C1` [Example 150, 1-(((Z)-(2-(((2R,3S)-2-((4-(((S)-3-aminopyrrolidine-1-carboximidamido)methyl)-2H-1,2,3-triazol-2-yl)methyl)-4-oxo-1-sulfoazetidin-3-yl)amino)-1-(2-aminothiazol-4-yl)-2-oxoethylidene)amino)oxy)cyclopropanecarboxylic acid], for which the minimum inhibitory concentration (MIC) in the assay with E. coli strain 25922 amounted to 1 µg/mL (≈ 1.56 µM); in the assay on E. coli containing KPC-2, 0.5 µg/mL (≈ 0.78 µM).

On to `N=C(NC1CNC1)c1ccc(OC[C@H](O/N=C(\C(=O)N[C@@H]2C(=O)N(S(=O)(=O)O)[C@@H]2Cn2cncn2)c2csc(N)n2)C(=O)O)cc1` [Example 68, (S)-2-(((Z)-(2-(((2R,3S)-2-((1H-1,2,4-triazol-1-yl)methyl)-4-oxo-1-sulfoazetidin-3-yl)amino)-1-(2-aminothiazol-4-yl)-2-oxoethylidene)amino)oxy)-3-(4-(N-(azetidin-3-yl)carbamimidoyl)phenoxy)propanoic acid], for which the MIC in the assay on E. coli strain 25922 and in the assay on E. coli containing KPC-2 was 0.25 µg/mL (≈ 0.369 µM) each time.

As to `NCc1cnn(C[C@@H]2[C@H](NC(=O)/C(=N\OC3(C(=O)O)CC3)c3csc(N)n3)C(=O)N2S(=O)(=O)O)n1` [Example 19, 1-(((Z)-(2-(((2R,3S)-2-((4-(aminomethyl)-2H-1,2,3-triazol-2-yl)methyl)-4-oxo-1-sulfoazetidin-3-yl)amino)-1-(2-aminothiazol-4-yl)-2-oxoethylidene)amino)oxy)cyclopropanecarboxylic acid], the MIC in the assay on E. coli strain 25922 and in the assay on E. coli containing KPC-2 was 0.25 µg/mL (≈ 0.472 µM) throughout.

Consider `Nc1nc(/C(=N/OC2(C(=O)O)CC2)C(=O)N[C@@H]2C(=O)N(S(=O)(=O)O)[C@@H]2Cn2ncc(CN[C@H]3C[C@H](N)C3)n2)cs1` [Example 93, 1-(((Z)-(2-(((2R,3S)-2-((4-((((1 r,3R)-3-aminocyclobutyl)amino)methyl)-2H-1,2,3-triazol-2-yl)methyl)-4-oxo-1-sulfoazetidin-3-yl)amino)-1-(2-aminothiazol-4-yl)-2-oxoethylidene)amino)oxy)cyclopropanecarboxylic acid], for which the figures for the minimum inhibitory concentration (MIC) in the assay with E. coli strain 25922 and in the assay on E. coli containing KPC-2 were 0.25 µg/mL (≈ 0.418 µM) and 0.5 µg/mL (≈ 0.835 µM), respectively.

For the compound `Nc1nc(/C(=N/OC2(C(=O)O)CC2)C(=O)N[C@@H]2C(=O)N(S(=O)(=O)O)[C@@H]2Cn2ncc(CN3CCC(N)CC3)n2)cs1` [Example 138, 1-(((Z)-(2-(((2R,3S)-2-((4-((4-aminopiperidin-1-yl)methyl)-2H-1,2,3-triazol-2-yl)methyl)-4-oxo-1-sulfoazetidin-3-yl)amino)-1-(2-aminothiazol-4-yl)-2-oxoethylidene)amino)oxy)cyclopropanecarboxylic acid], the results for the MIC in the assay with E. coli strain 25922 and with E. coli containing KPC-2 were 0.5 µg/mL (≈ 0.816 µM) and 1 µg/mL (≈ 1.63 µM), respectively.

As for `Cc1ncnn1C[C@@H]1[C@H](NC(=O)/C(=N\OC(C)(C)C(=O)O)c2csc(N)n2)C(=O)N1S(=O)(=O)O` [Example 61, 2-(((Z)-(1-(2-aminothiazol-4-yl)-2-(((2R,3S)-2-((5-methyl-1H-1,2,4-triazol-1-yl)methyl)-4-oxo-1-sulfoazetidin-3-yl)amino)-2-oxoethylidene)amino)oxy)-2-methylpropanoic acid], the MIC with E. coli strain 25922 came to 8 µg/mL (≈ 15.5 µM); in the assay with E. coli containing KPC-2 it was 2 µg/mL (≈ 3.87 µM).

As for `Nc1nc(/C(=N/OC2(C(=O)O)CC2)C(=O)N[C@@H]2C(=O)N(S(=O)(=O)O)[C@@H]2Cn2ncc(CSC3Cn4cnc[n+]4C3)n2)cs1` (stereo partly drawn) [Example 139, (2R,3S)-3-((Z)-2-(2-aminothiazol-4-yl)-2-((1-carboxycyclopropoxy)imino)acetamido)-2-((4-(((6,7-dihydro-5H-pyrazolo[1,2-a][1,2,4]triazol-4-ium-6-yl)thio)methyl)-2H-1,2,3-triazol-2-yl)methyl)-4-oxoazetidine-1-sulfonate], the MIC was determined as 1 µg/mL with E. coli strain 25922 and 4 µg/mL in the assay with E. coli containing KPC-2.

As to `Cc1nn(C[C@@H]2[C@H](NC(=O)/C(=N\OC3(C(=O)O)CC3)c3csc(N)n3)C(=O)N2S(=O)(=O)O)nc1CNC(=N)NCCCN` [Example 144, 1-(((Z)-(2-(((2R,3S)-2-((4-((3-(3-aminopropyl)guanidino)methyl)-5-methyl-2H-1,2,3-triazol-2-yl)methyl)-4-oxo-1-sulfoazetidin-3-yl)amino)-1-(2-aminothiazol-4-yl)-2-oxoethylidene)amino)oxy)cyclopropanecarboxylic acid], the MIC with E. coli strain 25922 and in the assay on E. coli containing KPC-2 was 1 µg/mL (≈ 1.56 µM) in each case.

With `CC(C)(O/N=C(\C(=O)N[C@@H]1C(=O)N(S(=O)(=O)O)[C@@H]1CN1C(=O)CCC1=O)c1csc(N)n1)C(=O)O` [Example 121, 2-(((Z)-(1-(2-aminothiazol-4-yl)-2-(((2R,3S)-2-((2,5-dioxopyrrolidin-1-yl)methyl)-4-oxo-1-sulfoazetidin-3-yl)amino)-2-oxoethylidene)amino)oxy)-2-methylpropanoic acid], the MIC with E. coli strain 25922 and with E. coli containing KPC-2 was 0.25 µg/mL (≈ 0.469 µM) each time.

Take `CC(C)(O/N=C(\C(=O)N[C@@H]1C(=O)N(S(=O)(=O)O)[C@@H]1Cn1cnc(C(N)=O)n1)c1csc(N)n1)C(=O)O` [Example 74, 2-(((Z)-(1-(2-aminothiazol-4-yl)-2-(((2R,3S)-2-((3-carbamoyl-1H-1,2,4-triazol-1-yl)methyl)-4-oxo-1-sulfoazetidin-3-yl)amino)-2-oxoethylidene)amino)oxy)-2-methylpropanoic acid]: the values for the minimum inhibitory concentration (MIC) with E. coli strain 25922 and in the assay with E. coli containing KPC-2 were 8 µg/mL (≈ 14.7 µM) and 32 µg/mL (≈ 58.7 µM), respectively.

Consider `CC(C)(O/N=C(\C(=O)N[C@@H]1C(=O)N(S(=O)(=O)O)[C@@H]1Cn1nnnc1CN)c1csc(N)n1)C(=O)O` [Example 6, 2-(((Z)-(2-(((2R,3S)-2-((5-(aminomethyl)-1H-tetrazol-1-yl)methyl)-4-oxo-1-sulfoazetidin-3-yl)amino)-1-(2-aminothiazol-4-yl)-2-oxoethylidene)amino)oxy)-2-methylpropanoic acid], for which the MIC was determined as 4 µg/mL (≈ 7.51 µM) in the assay with E. coli strain 25922 and 1 µg/mL (≈ 1.88 µM) in the assay on E. coli containing KPC-2.
